Data from US9902728B2, “Pyrrolo and pyrazolopyrimidines as ubiquitin-specific protease 7 inhibitors” (Forma Therapeutics, Inc., priority 2014, dated 2018).
pIC50: −log10 of the molar value. Where two headings read alike, the source gives them in different places.

Target: T1, USP7 (Homo sapiens, UniProt Q93009)
T1 construct: USP7, construct USP7 (208-1102) 6*His, Viva Biotech; 6xHis (C); purchased Viva Biotech
Assay: USP7 Assay A (Ubitquin-Rhodamine 110 Assay)
Assay type: biochemical
Conditions: read-out: USP7_IC50
Method in brief: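 Enzyme and compound sat together for 30 min before Ub-Rh110 was added, in buffer of 20 mM Tris-HCl (pH 8.0), 1 mM GSH, 0.03% BGG and 0.01% Triton X-100.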

[1] = USP7 assay A and B (table does not say which assay per compound)
[2] = USP7 activity in USP7 assay A and B (table does not say which assay per compound)
[3] = USP7 assay A and B (table does not say which assay per compound), Ubiquitin-Rhodamine 110 substrate

T1 sequence (Q93009 208-1102): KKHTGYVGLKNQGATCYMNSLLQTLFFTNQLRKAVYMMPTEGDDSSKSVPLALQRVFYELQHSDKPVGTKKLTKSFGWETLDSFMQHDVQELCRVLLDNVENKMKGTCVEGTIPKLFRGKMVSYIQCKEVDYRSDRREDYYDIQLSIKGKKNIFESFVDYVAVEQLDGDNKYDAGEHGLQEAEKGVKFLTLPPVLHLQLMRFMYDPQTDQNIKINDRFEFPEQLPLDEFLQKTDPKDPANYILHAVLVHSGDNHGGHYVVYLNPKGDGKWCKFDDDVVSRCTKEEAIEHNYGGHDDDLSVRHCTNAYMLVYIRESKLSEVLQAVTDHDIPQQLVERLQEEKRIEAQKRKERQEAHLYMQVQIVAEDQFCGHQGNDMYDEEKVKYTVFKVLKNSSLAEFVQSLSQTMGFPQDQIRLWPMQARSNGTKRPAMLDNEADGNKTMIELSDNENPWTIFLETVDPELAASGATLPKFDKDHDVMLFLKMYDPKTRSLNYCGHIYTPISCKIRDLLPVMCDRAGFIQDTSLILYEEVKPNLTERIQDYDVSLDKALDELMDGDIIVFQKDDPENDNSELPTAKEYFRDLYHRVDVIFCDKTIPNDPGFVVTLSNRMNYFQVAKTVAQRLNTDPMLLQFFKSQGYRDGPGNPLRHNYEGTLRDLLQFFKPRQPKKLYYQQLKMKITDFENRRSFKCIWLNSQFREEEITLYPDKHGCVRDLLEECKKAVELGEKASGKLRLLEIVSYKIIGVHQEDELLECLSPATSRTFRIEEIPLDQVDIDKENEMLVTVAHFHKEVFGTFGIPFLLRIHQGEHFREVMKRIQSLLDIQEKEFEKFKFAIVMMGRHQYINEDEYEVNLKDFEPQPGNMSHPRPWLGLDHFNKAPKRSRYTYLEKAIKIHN

SMILES	pIC50 [1]	pIC50 [2]	also measured
Cc1ccc(-n2ncc3c(=O)n(CC4(O)CCN(C(=O)c5ccc(Oc6ccccc6)cc5)CC4)cnc32)cc1 [Compound I-69]	6.00 to 6.70		
CN[C@H]1CCN(c2ccc(-c3ccc(-n4ncc5c(=O)n(CC6(O)CCN(C(=O)C7CC7)CC6)cnc54)cc3)cn2)C1 [Compound I-684]		> 6.70	
O=C(c1ccc(Oc2ccccc2)cc1)N1CCC(O)(Cn2cnc3c(cnn3-c3ccccc3)c2=O)CC1 [Compound I-73]	6.00 to 6.70		
O=C(c1cn[nH]c1Cc1ccccc1)N1CCC(O)(Cn2cnc3c(cnn3-c3ccc(F)cc3)c2=O)CC1 [Compound I-603]		> 6.70	
O=C(c1ccc(F)cc1)N1CCC(O)(Cn2cnc3c(cnn3-c3ccc(C4(O)CC4)cc3)c2=O)CC1 [Compound I-713]	5.00 to 6.00		
O=C(C1CCC(Oc2cccnc2)CC1)N1CCC(O)(Cn2cnc3c(cnn3-c3ccc(F)cc3)c2=O)CC1 (stereo not drawn) [Compound I-750]		6.00 to 6.70	
O=C(C1CCC(n2cccn2)CC1)N1CCC(O)(Cn2cnc3c(cnn3-c3ccc(F)cc3)c2=O)CC1 (stereo not drawn) [Compound I-548]		5.00 to 6.00	
O=C(c1ccc(F)cc1)N1CCC(O)(Cn2cnc3c(cnn3-c3cccc(OCc4ccccc4)c3)c2=O)CC1 [Compound I-1285]	5.00 to 6.00		
Cn1ncc2c(=O)n(CC3(O)CCN(C(=O)c4ccc(-c5ccc(C(=O)N6CCCCC6)cc5)cc4Cl)CC3)cnc21 [Compound I-55]			pIC50 [3]: 5.00 to 6.00
CNS(=O)(=O)c1ccc(C(=O)N2CCC(O)(Cn3cnc4c(cnn4-c4ccccc4)c3=O)CC2)cc1 [Compound I-182]	5.00 to 6.00		
Cc1cncc(OC2CCC(C(=O)N3CCC(O)(Cn4cnc5c(cnn5-c5ccc(F)cc5)c4=O)CC3)CC2)n1 (stereo not drawn) [Compound I-1015]		6.00 to 6.70	
Cn1ncc2c(=O)n(CC3(O)CCN(C(=O)c4ccc(-c5ccccc5CC#N)cc4)CC3)cnc21 [Compound I-83]	5.00 to 6.00		
O=c1c2cnn(-c3ccccc3)c2ncn1CC1(O)CCN(C(=O)[C@H]2CC[C@H](Nc3cccnc3F)CC2)CC1 [Compound I-1039b, Anti-5-((1-(4-((2-fluoropyridin-3-yl)amino)cyclohexane-1-carbonyl)-4-hydroxypiperidin-4-yl)methyl)-1-phenyl-1,5-dihydro-4H-pyrazolo[3,4-d]pyrimidin-4-one]		> 6.70	
Cc1ccc(-n2ncc3c(=O)n(CC4(O)CCN(C(=O)C[C@@H](C(F)F)n5ccc(F)n5)CC4)cnc32)cc1 [Compound I-797]		5.00 to 6.00	
O=C(c1cnc(C2CC2)o1)N1CCC(O)(Cn2cnc3c(cnn3-c3ccc(-n4cc(C(F)(F)F)cn4)cc3)c2=O)CC1 [Compound I-1685]		> 6.70	
COc1ccc(OC2CCC(C(=O)N3CCC(O)(Cn4cnc5c(cnn5-c5ccccc5)c4=O)CC3)CC2)nc1 (stereo not drawn) [Compound I-1020]		6.00 to 6.70	
CN(C)C(=O)c1ccc(-c2cccc(-n3ncc4c(=O)n(CC5(O)CCN(C(=O)C6CC6)CC5)cnc43)c2)cc1 [Compound I-350]	5.00 to 6.00		
C[C@@H](CC(=O)N1CCC(O)(Cn2cnc3c(cnn3-c3ccc(F)cc3)c2=O)CC1)N1CC2CCCC2C1 (stereo partly drawn) [Compound I-524]	5.00 to 6.00		
O=C(C1CC1)N1CCC(O)(Cn2cnc3c(cnn3-c3ccc(NCCc4ccccc4)cc3)c2=O)CC1 [Compound I-1187]	5.00 to 6.00		
CC(=O)N1CC2CC1CN2c1ccc(-n2ncc3c(=O)n(CC4(O)CCN(C(=O)C5(C)CC5)CC4)cnc32)cc1 (stereo not drawn) [Compound I-1749]		6.00 to 6.70	
O=C(c1ccc(F)cc1)N1CCC(O)(Cn2cnc3c(cnn3-c3ccc(N4CC[C@H](O)C4)cc3)c2=O)CC1 [Compound I-1434]		5.00 to 6.00	

SMILES	pIC50 [1]	pIC50 [2]	also measured
CC1(C(=O)N2CCC(O)(Cn3cnc4c(cnn4-c4ccc(-n5ccc(F)n5)cc4)c3=O)CC2)CC1 [Compound I-1754]		6.00 to 6.70	
O=C(C[C@H](C(F)F)n1cccn1)N1CCC(O)(Cn2cnc3c(cnn3-c3ccc(N4CCCCC4)cc3)c2=O)CC1 [Compound I-821]		5.00 to 6.00	
Cn1ncc2c(=O)n(CC3(O)CCN(C(=O)C[C@H](c4ccccc4)C(F)(F)F)CC3)cnc21 [Compound I-143]	5.00 to 6.00		
Cn1ccc(NC2CCC(C(=O)N3CCC(O)(Cn4cnc5c(ccn5-c5ccc(F)cc5)c4=O)CC3)CC2)n1 (stereo not drawn) [Compound I-1040]		5.00 to 6.00	
O=C(C1CCC(Oc2cccc(F)n2)CC1)N1CCC(O)(Cn2cnc3c(cnn3-c3ccccc3)c2=O)CC1 (stereo not drawn) [Compound I-741]		> 6.70	
Cn1nccc1NC1CCC(C(=O)N2CCC(O)(Cn3cnc4c(cnn4-c4ccc(F)cc4)c3=O)CC2)CC1 (stereo not drawn) [Compound I-764]		6.00 to 6.70	
O=C(C1CC1)N1CCC(O)(Cn2cnc3c(cnn3C3CCCCC3)c2=O)CC1 [Compound I-29]	< 5.00		
O=C(NC1CCC(C(=O)N2CCC(O)(Cn3cnc4c(cnn4-c4ccc(F)cc4)c3=O)CC2)CC1)C1CC1 (stereo not drawn) [Compound I-1075]		5.00 to 6.00	
CN(C)C(=O)N1CCC(O)(Cn2cnc3c(cnn3-c3ccc(N4CCC5(CCNCC5)CC4)cc3)c2=O)CC1 [Compound I-508]	6.00 to 6.70		
Cn1ncc2c1CN(C(=O)N1CCC(O)(Cn3cnc4c(cnn4-c4ccc(F)cc4)c3=O)CC1)CC2 [Compound I-762]		5.00 to 6.00	
N#Cc1ccc(Nc2ccc(-n3ncc4c(=O)n(CC5(O)CCN(C(=O)C6CC6)CC5)cnc43)cc2)nc1 [Compound I-1277]	5.00 to 6.00		
O=C(C1CCC(Oc2cccnc2)CC1)N1CCC(O)(Cn2cnc3c(cnn3-c3ccc(F)cc3)c2=O)CC1 (stereo not drawn) [Compound I-749]		> 6.70	
Cc1ncc(C(=O)N2CCC(O)(Cn3cnc4c(cnn4-c4ccc(-n5cc(C(F)(F)F)cn5)cc4)c3=O)CC2)o1 [Compound I-1688]		> 6.70	
O=C(N1CCC(O)(Cn2cnc3c(cnn3-c3ccc(F)cc3)c2=O)CC1)N1CC[C@H]1Cc1ccccc1 [Compound I-760]		5.00 to 6.00	
O=C(C1CC1)N1CCC(O)(Cn2cnc3c(cnn3-c3cccc(-c4cncc(F)c4)c3)c2=O)CC1 [Compound I-387]	5.00 to 6.00		
O=C(c1ccc(N2CCN3CCC2CC3)cc1)N1CCC(O)(Cn2cnc3c(cnn3-c3ccc(F)cc3)c2=O)CC1 [Compound I-1682]		5.00 to 6.00	
CC(C)(C)n1ncc2c(=O)n(CC3(O)CCN(C(=O)c4ccc(Oc5ccccc5)cc4)CC3)cnc21 [Compound I-60]			pIC50 [3]: < 5.00
O=C(C1CC1)N1CCC(O)(Cn2cnc3c(cnn3-c3ccc(-c4ccc(N5CC[C@H](O)C5)nc4)cc3)c2=O)CC1 [Compound I-686]		6.00 to 6.70	
O=C(C1CCC(Oc2ccc(F)cn2)CC1)N1CCC(O)(Cn2cnc3c(cnn3-c3ccccc3)c2=O)CC1 (stereo not drawn) [Compound I-743]		5.00 to 6.00	
C[C@@](O)(c1ccc(C(=O)N2CCC(O)(Cn3cnc4c(cnn4-c4ccc(F)cc4)c3=O)CC2)cc1)C(F)(F)F [Compound I-527]	5.00 to 6.00		
O=C(C1CCC(Oc2ccccn2)CC1)N1CCC(O)(Cn2cnc3c(cnn3-c3ccc(CO)cc3)c2=O)CC1 (stereo not drawn) [Compound I-852]		> 6.70	

SMILES	pIC50 [1]	pIC50 [2]	also measured
O=C(C1CCC(Oc2ccc(F)cn2)CC1)N1CCC(O)(Cn2cnc3c(cnn3-c3ccc(F)cc3)c2=O)CC1 (stereo not drawn) [Compound I-738]		6.00 to 6.70	
Cn1ccc(OC2CCC(C(=O)N3CCC(O)(Cn4cnc5c(cnn5-c5ccc(F)cc5)c4=O)CC3)CC2)n1 (stereo not drawn) [Compound I-754]		6.00 to 6.70	
O=C(c1ncoc1Cc1ccccc1)N1CCC(O)(Cn2cnc3c(cnn3-c3ccc(F)cc3)c2=O)CC1 [Compound I-557]		6.00 to 6.70	
O=C(c1ccc(N2CCN3CCCC3C2)cc1)N1CCC(O)(Cn2cnc3c(cnn3-c3ccc(F)cc3)c2=O)CC1 (stereo not drawn) [Compound I-1735]		5.00 to 6.00	
COc1ccc(-n2ncc3c(=O)n(CC4(O)CCN(C(=O)c5ccc(F)cc5)CC4)cnc32)cc1 [Compound I-620]	6.00 to 6.70		
Cc1ccccc1S(=O)(=O)Nc1ccc(-n2ncc3c(=O)n(CC4(O)CCN(C(=O)C5CC5)CC4)cnc32)cc1 [Compound I-1425]	5.00 to 6.00		
O=C(C[C@@H](C(F)F)n1cc(F)cn1)N1CCC(O)(Cn2cnc3c(cnn3-c3ccc(F)cc3)c2=O)CC1 [Compound I-918]		< 5.00	
O=C(C1CCC(Nc2cccc(F)n2)CC1)N1CCC(O)(Cn2cnc3c(cnn3-c3ccc(F)cc3)c2=O)CC1 (stereo not drawn) [Compound I-1024]		> 6.70	
O=C(c1ccccc1)N1CCC(O)(Cn2cnc3c(ccn3-c3ccc(F)cc3)c2=O)CC1 [Compound I-48]	5.00 to 6.00		
Cc1nccn1-c1ccc(-n2ncc3c(=O)n(CC4(O)CCN(C(=O)c5ccc(F)cc5)CC4)cnc32)cc1 [Compound I-988]		5.00 to 6.00	
Nc1cccc(-n2ncc3c(=O)n(CC4(O)CCN(C(=O)C5CC5)CC4)cnc32)c1 [Compound I-964]	5.00 to 6.00		
CN1CCC(Oc2ccc(C(=O)N3CCC(O)(Cn4cnc5c(cnn5-c5ccc(Cl)cc5)c4=O)CC3)cc2)CC1 [Compound I-1096]		5.00 to 6.00	
Cn1cc(-c2ccc(-n3ncc4c(=O)n(CC5(O)CCN(C(=O)c6cnc(C7CC7)o6)CC5)cnc43)cc2)cn1 [Compound I-776]		> 6.70	
O=C(c1ccc(OC(F)F)cc1)N1CCC(O)(Cn2cnc3c(cnn3-c3ccc(CO)cc3)c2=O)CC1 [Compound I-851]	6.00 to 6.70		
O=C(C1CCCCC1)N1CCC(O)(Cn2cnc3c(cnn3-c3ccccc3)c2=O)CC1 [Compound I-189]	6.00 to 6.70		
C[C@@H](CC(=O)N1CCC(O)(Cn2cnc3c(cnn3-c3ccc(N4CC[C@](C)(O)C4)cc3)c2=O)CC1)n1cccn1 [Compound I-837]		> 6.70	
O=C(C[C@H](C(F)F)n1cccn1)N1CCC(O)(Cn2cnc3c(cnn3-c3ccc(CN4CCC4)cc3)c2=O)CC1 [Compound I-855]		> 6.70	
O=C(c1ccc(OC2CC2)cc1)N1CCC(O)(Cn2cnc3c(cnn3-c3ccc(F)cc3)c2=O)CC1 [Compound I-283]	5.00 to 6.00		
O=C(c1ccc(-n2cnnc2)cc1)N1CCC(O)(Cn2cnc3c(cnn3-c3ccc(Cl)cc3)c2=O)CC1 [Compound I-919]		5.00 to 6.00	
O=C(C1CC1)N1CCC(O)(Cn2cnc3c(cnn3-c3ccc(Cl)c(Cl)c3)c2=O)CC1 [Compound I-33]	5.00 to 6.00		
CC(=O)N1CC2CC1CN2c1cccc(-n2ncc3c(=O)n(CC4(O)CCN(C(=O)C5(C)CC5)CC4)cnc32)c1 (stereo not drawn) [Compound I-1748]		6.00 to 6.70	
